Measurements taken from the Kinase Knowledgebase extract (Sharma et al. 2016).

target: PIK3CA (human) (UniProt P42336); assay: Assessment of PIK3CA Kinase Activity
Sequence (P42336 whole entry, looked up): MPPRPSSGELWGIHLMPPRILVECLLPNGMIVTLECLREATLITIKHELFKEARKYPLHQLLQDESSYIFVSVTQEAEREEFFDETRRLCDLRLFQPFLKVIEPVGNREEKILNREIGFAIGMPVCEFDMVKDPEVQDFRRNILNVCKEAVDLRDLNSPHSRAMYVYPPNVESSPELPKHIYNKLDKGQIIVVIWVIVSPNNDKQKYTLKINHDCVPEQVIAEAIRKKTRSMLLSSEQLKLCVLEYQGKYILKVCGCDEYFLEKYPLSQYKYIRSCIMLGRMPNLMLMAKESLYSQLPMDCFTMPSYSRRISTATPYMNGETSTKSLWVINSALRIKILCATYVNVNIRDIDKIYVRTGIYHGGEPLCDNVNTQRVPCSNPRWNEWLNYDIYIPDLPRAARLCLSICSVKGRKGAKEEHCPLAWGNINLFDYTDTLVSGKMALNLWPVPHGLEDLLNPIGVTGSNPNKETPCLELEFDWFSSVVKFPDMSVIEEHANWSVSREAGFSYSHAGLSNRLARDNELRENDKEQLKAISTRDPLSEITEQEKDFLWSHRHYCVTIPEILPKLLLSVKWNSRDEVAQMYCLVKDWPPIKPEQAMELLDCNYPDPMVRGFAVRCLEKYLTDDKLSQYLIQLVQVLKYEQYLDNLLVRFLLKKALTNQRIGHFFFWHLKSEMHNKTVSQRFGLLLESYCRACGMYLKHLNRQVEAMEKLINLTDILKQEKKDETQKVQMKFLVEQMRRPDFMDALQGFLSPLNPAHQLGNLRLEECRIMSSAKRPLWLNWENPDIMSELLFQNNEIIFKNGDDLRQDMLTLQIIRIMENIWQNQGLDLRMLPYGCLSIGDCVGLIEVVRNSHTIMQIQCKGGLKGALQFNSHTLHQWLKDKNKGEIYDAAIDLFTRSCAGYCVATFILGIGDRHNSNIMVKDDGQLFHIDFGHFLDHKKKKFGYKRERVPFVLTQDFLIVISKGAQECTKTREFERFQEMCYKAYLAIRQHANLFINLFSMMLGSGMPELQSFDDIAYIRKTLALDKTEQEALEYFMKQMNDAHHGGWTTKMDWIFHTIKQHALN

IC50, 50 to 200 nM:
CS(=O)(=O)c1cccc(-c2ccc3c(N4CCOCC4)nc(-c4ccc(NC(=O)Nc5ccc(C(N)=O)cc5)cc4)nc3c2)c1
CN(C)[C@H]1CCN(C(=O)c2ccc(NC(=O)Nc3ccc(-c4nc(N5CCOCC5)c5ccc(C(C)(C)O)cc5n4)cc3)cc2)C1
CN(C)C(=O)c1ccc(NC(=O)Nc2ccc(-c3nc(N4CCOCC4)c4ccc(-c5ccnnc5)cc4n3)cc2F)cc1
CN1CCN(C(=O)c2ccc(NC(=O)Nc3ccc(-c4nc(N5CCOCC5)c5ccc(-c6ccsc6)cc5n4)cc3)cc2)CC1
CN(C)C(=O)c1ccc(NC(=O)Nc2ccc(-c3nc(N4CCOCC4)c4cc(F)c(-c5cncnc5)cc4n3)cc2)c(F)c1
Cc1noc(C)c1-c1ccc2c(N3CCOCC3)nc(-c3ccc(NC(=O)Nc4ccc(C(=O)N(C)C)cc4)cc3F)nc2c1
COc1ccc(-c2ccc3c(N4CCOCC4)nc(-c4ccc(NC(=O)Nc5ccc(C(=O)N(C)C)c(F)c5)cc4)nc3c2)cn1
CN(C)C(=O)c1ccc(NC(=O)Nc2ccc(-c3nc(N4CCOCC4)c4ccc(-c5cccnc5F)cc4n3)cc2)cc1F
CN(C)C(=O)c1ccc(NC(=O)Nc2ccc(-c3nc(N4CCOCC4)c4ccc(-c5ccco5)cc4n3)c(F)c2)cc1
COc1ccc(-c2ccc3c(N4CCOCC4)nc(-c4ccc(NC(=O)Nc5ccc(C(=O)N(C)C)cc5)c(F)c4)nc3c2)cn1
Cc1ccc(-c2ccc3c(N4CCOC(C)C4)nc(-c4ccc(NC(=O)Nc5ccc(C(=O)N(C)C)cc5)cc4)nc3c2)o1 (configuration not stated)
Cc1noc(C)c1-c1ccc2c(N3CCOCC3)nc(-c3ccc(NC(=O)Nc4ccc(C(=O)N(C)C)c(F)c4)cc3)nc2c1
CN(C)C(=O)c1ccc(NC(=O)Nc2ccc(-c3nc(N4CCOCC4)c4ccc(-c5cncnc5)cc4n3)cc2F)cn1
Cc1ccc(-c2cc3nc(-c4ccc(NC(=O)Nc5ccc(C(=O)N(C)C)cc5)cc4)nc(N4CCOCC4)c3cc2F)o1
CN(C)Cc1ccc(-c2ccc3c(N4CCOCC4)nc(-c4ccc(NC(=O)Nc5ccc(C(=O)N(C)C)cc5)cc4)nc3c2)o1
COc1ccc2c(N3CCOCC3)nc(-c3ccc(NC(=O)Nc4ccc(C(=O)N(C)C)cc4)c(F)c3)nc2c1
CN(C)C(=O)c1ccc(NC(=O)Nc2ccc(-c3nc(N4CCOCC4)c4cc(F)c(-c5cnn(C)c5)cc4n3)cc2F)cc1
Cc1noc(C)c1-c1ccc2c(N3CCOCC3)nc(-c3ccc(NC(=O)Nc4ccc(C(=O)N5CC[C@H](N(C)C)C5)cc4)cc3)nc2c1

IC50, < 50 nM:
CN(C)C(=O)c1ccc(NC(=O)Nc2ccc(-c3nc(N4CCOCC4)c4ncc(-c5cccnc5)cc4n3)cc2F)cc1
CN(C)C(=O)c1ccc(NC(=O)Nc2ccc(-c3nc(N4CCOCC4)c4cc(F)c(-c5cnn(C)c5)cc4n3)cc2)cc1
COc1ncc(-c2ccc3c(N4CCOCC4)nc(-c4ccc(NC(=O)Nc5ccc(C(=O)N(C)C)cc5)cc4F)nc3c2)cn1
CN(C)C(=O)c1ccc(NC(=O)Nc2ccc(-c3nc(N4CCOCC4)c4ccc(-c5cccs5)cc4n3)cc2)cc1
CN(C)C(=O)c1ccc(NC(=O)Nc2ccc(-c3nc(N4CCOCC4)c4ccc(-c5ccc(C(C)(C)O)o5)cc4n3)cc2)cc1
Cc1ccncc1-c1cnc2c(N3CCOCC3)nc(-c3ccc(NC(=O)Nc4ccc(C(=O)N(C)C)cc4)cc3)nc2c1
Cc1ccncc1-c1ccc2c(N3CCOCC3)nc(-c3ccc(NC(=O)Nc4ccc(C(=O)N(C)C)cc4)c(F)c3)nc2c1
CN(C)C(=O)c1ccc(NC(=O)Nc2ccc(-c3nc(N4CCOCC4)c4ncc(-c5cnn(C)c5)cc4n3)cc2)c(F)c1
CN(C)C(=O)c1ccc(NC(=O)Nc2ccc(-c3nc(N4CCOCC4)c4cc(F)c(-c5cncnc5)cc4n3)cc2)cc1
CN(C)[C@H]1CCN(C(=O)c2ccc(NC(=O)Nc3ccc(-c4nc(N5CCOCC5)c5ncc(-c6cnn(C)c6)cc5n4)cc3)cc2)C1
CN(C)[C@@H]1CCN(C(=O)c2ccc(NC(=O)Nc3ccc(-c4nc(N5CCOCC5)c5ncc(-c6cnn(C)c6)cc5n4)cc3F)cc2)C1
CN(C)C(=O)c1ccc(NC(=O)Nc2ccc(-c3nc(N4CCOCC4)c4ccc(-c5cccc(S(C)(=O)=O)c5)cc4n3)cc2)cc1
COc1ncc(-c2cnc3c(N4CCOCC4)nc(-c4ccc(NC(=O)Nc5ccc(C(=O)N(C)C)cc5F)cc4)nc3c2)cn1
CN(C)C(=O)c1ccc(NC(=O)Nc2ccc(-c3nc(N4CCOCC4)c4ccc(-c5cccc(NS(C)(=O)=O)c5)cc4n3)cc2)cc1
COc1ccc2c(N3CCOCC3)nc(-c3ccc(NC(=O)Nc4ccc(C(=O)N(C)C)cc4)cc3)nc2c1
CN1CCN(C(=O)c2ccc(NC(=O)Nc3ccc(-c4nc(N5CCOCC5)c5ccc(-c6cccnc6F)cc5n4)cc3)cc2)CC1
CN(C)C(=O)c1ccc(NC(=O)Nc2ccc(-c3nc(N4CCOCC4)c4ccc(-c5cccnc5)cc4n3)cc2)cc1F
CC(=O)c1ccc(-c2ccc3c(N4CCOCC4)nc(-c4ccc(NC(=O)Nc5ccc(C(=O)N(C)C)c(F)c5)cc4)nc3c2)o1
CC(=O)c1ccc(-c2ccc3c(N4CCOCC4)nc(-c4ccc(NC(=O)Nc5ccc(C(=O)N(C)C)cc5)cc4)nc3c2)o1
CN(C)C(=O)c1ccc(NC(=O)Nc2ccc(-c3nc(N4CCOCC4)c4ccc(-c5cccc(S(C)(=O)=O)c5)cc4n3)cc2F)cc1
CN(C)C(=O)c1ccc(NC(=O)Nc2ccc(-c3nc(N4CCOCC4)c4ccc(CO)cc4n3)cc2)cc1
CN1CCN(C(=O)c2ccc(NC(=O)Nc3ccc(-c4nc(N5CCOCC5)c5cc(F)c(-c6cccnc6)cc5n4)cc3)cc2)CC1
CN(C)C(=O)c1ccc(NC(=O)Nc2ccc(-c3nc(N4CCOCC4)c4ccc(-c5ccc(CO)o5)cc4n3)cc2)c(F)c1
Cc1noc(C)c1-c1cnc2c(N3CCOCC3)nc(-c3ccc(NC(=O)Nc4ccc(C(=O)N(C)C)cc4)c(F)c3)nc2c1
CN(C)C(=O)c1ccc(NC(=O)Nc2ccc(-c3nc(N4CCOCC4)c4cc(F)c(-c5cncc(S(C)(=O)=O)c5)cc4n3)cc2)cc1
CC1CN(c2nc(-c3ccc(NC(=O)Nc4ccc(C(=O)N(C)C)cc4)cc3)nc3cc(-c4cnn(C)c4)cnc23)CCO1 (configuration not stated)
CN(C)C(=O)c1ccc(NC(=O)Nc2ccc(-c3nc(N4CCOCC4)c4ncc(-c5cncnc5)cc4n3)cc2)cc1
CN(C)C(=O)c1ccc(NC(=O)Nc2ccc(-c3nc(N4CCOCC4)c4cc(F)c(-c5cccnc5)cc4n3)cc2)c(F)c1
CC(O)c1ccc(-c2ccc3c(N4CCOCC4)nc(-c4ccc(NC(=O)Nc5ccc(C(=O)N(C)C)cc5)cc4)nc3c2)o1 (configuration not stated)
CN(C)C(=O)c1ccc(NC(=O)Nc2ccc(-c3nc(N4CCOCC4)c4ncc(-c5cccnc5)cc4n3)cc2)cc1F
CN(C)C(=O)c1ccc(NC(=O)Nc2ccc(-c3nc(N4CCOCC4)c4cc(F)c(-c5cncnc5)cc4n3)cn2)cc1
Cc1ccc(-c2ccc3c(N4CCOCC4)nc(-c4ccc(NC(=O)Nc5ccc(C(=O)N6CCC(O)C6)cc5)cc4)nc3c2)o1 (configuration not stated)
Cc1noc(C)c1-c1ccc2c(N3CCOCC3)nc(-c3ccc(NC(=O)Nc4ccc(C(=O)N(C)C)cc4)cc3)nc2c1
CN(C)C(=O)c1ccc(NC(=O)Nc2ccc(-c3nc(N4CCOCC4)c4ncc(-c5cccnc5F)cc4n3)cc2)c(F)c1
CN(C)C(=O)c1ccc(NC(=O)Nc2ccc(-c3nc(N4CCOCC4)c4ncc(-c5cnn(C)c5)cc4n3)cc2F)cn1
CN(C)C(=O)c1ccc(NC(=O)Nc2ccc(-c3nc(N4CCOCC4)c4ccc(-c5ccc(CO)o5)cc4n3)c(F)c2)cc1
CN(C)[C@H]1CCN(C(=O)c2ccc(NC(=O)Nc3ccc(-c4nc(N5CCOCC5)c5ncc(-c6cncnc6)cc5n4)cc3)cc2)C1
Cc1ccc(-c2ccc3c(N4CCOCC4)nc(-c4ccc(NC(=O)Nc5ccc(C(=O)N(C)C)cc5F)cc4)nc3c2)cn1
Cc1noc(C)c1-c1cnc2c(N3CCOCC3)nc(-c3ccc(NC(=O)Nc4ccc(C(=O)N(C)C)cc4)cc3)nc2c1
CN(C)C(=O)c1ccc(NC(=O)Nc2ccc(-c3nc(N4CCOCC4)c4ccc(C(C)(C)O)cc4n3)cc2)cc1
CN(C)C(=O)c1ccc(NC(=O)Nc2ccc(-c3nc(N4CCOCC4)c4ccc(-c5ccccn5)cc4n3)cc2)cc1F
CC(O)c1ccc(-c2ccc3c(N4CCOCC4)nc(-c4ccc(NC(=O)Nc5ccc(C(=O)N(C)C)cc5)c(F)c4)nc3c2)o1 (configuration not stated)
CN(C)C(=O)c1ccc(NC(=O)Nc2ccc(-c3nc(N4CCOCC4)c4ncc(-c5cccnc5F)cc4n3)cc2)cc1
Cc1ncccc1-c1ccc2c(N3CCOCC3)nc(-c3ccc(NC(=O)Nc4ccc(C(=O)N(C)C)cc4F)cc3)nc2c1
Cc1ccc(-c2ccc3c(N4CCOCC4)nc(-c4ccc(NC(=O)Nc5ccc(C(=O)N(C)CCN(C)C)cc5)cc4)nc3c2)o1
CN(C)CCN(C)C(=O)c1ccc(NC(=O)Nc2ccc(-c3nc(N4CCOCC4)c4ccc(-c5ccncc5)cc4n3)cc2)cc1
Cc1ncccc1-c1ccc2c(N3CCOCC3)nc(-c3ccc(NC(=O)Nc4ccc(C(=O)N(C)C)cc4)cc3)nc2c1
CN(C)C(=O)c1ccc(NC(=O)Nc2ccc(-c3nc(N4CCOCC4)c4ccc(-c5cnn(C)c5)cc4n3)cn2)cc1
CN(C)C(=O)c1ccc(NC(=O)Nc2ccc(-c3nc(N4CCOCC4)c4ccc(-c5cnc6ccccc6c5)cc4n3)cc2)cc1
CN(C)C(=O)c1ccc(NC(=O)Nc2ccc(-c3nc(N4CCOCC4)c4ccc(-c5cccc(CO)c5)cc4n3)cc2)cc1
CC(O)c1ccc(-c2cnc3c(N4CCOCC4)nc(-c4ccc(NC(=O)Nc5ccc(C(=O)N(C)C)cc5)cc4)nc3c2)o1 (configuration not stated)
Cc1ccc(-c2ccc3c(N4CCOCC4)nc(-c4ccc(NC(=O)Nc5ccc(C(=O)N(C)C)nc5)nc4)nc3c2)o1
CN(C)CCNC(=O)c1ccc(NC(=O)Nc2ccc(-c3nc(N4CCOCC4)c4ccc(-c5cncnc5)cc4n3)cc2F)cc1
CN(C)C(=O)c1ccc(NC(=O)Nc2ccc(-c3nc(N4CCOCC4)c4ccc(-c5cccc(S(C)(=O)=O)c5)cc4n3)c(F)c2)cc1
